Results published in US8460669B2, “Compositions and methods for identifying response targets and treating flavivirus infection responses” (Academia Sinica, priority 2005, dated 2013).

T1: DC-SIGN (Homo sapiens, UniProt Q9NNX6)
T1 construct: The extracellular domains of lectin receptors, TREMs and TLTs were cloned by the reverse-transcriptase polymerase chain reaction (RT-PCR); made in house; host or cells: 293-F (FreeStyle 293) cells
T1 sequence (Q9NNX6 59-404 limits assumed): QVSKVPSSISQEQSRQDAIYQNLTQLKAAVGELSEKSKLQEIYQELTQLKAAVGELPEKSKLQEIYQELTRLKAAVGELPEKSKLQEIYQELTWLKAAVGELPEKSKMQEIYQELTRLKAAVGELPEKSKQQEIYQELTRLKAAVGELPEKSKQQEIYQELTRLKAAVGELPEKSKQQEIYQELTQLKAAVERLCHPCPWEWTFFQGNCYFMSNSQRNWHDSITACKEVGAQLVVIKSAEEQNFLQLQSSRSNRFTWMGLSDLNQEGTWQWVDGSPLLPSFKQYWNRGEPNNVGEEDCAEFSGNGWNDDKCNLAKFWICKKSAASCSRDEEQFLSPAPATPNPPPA

T2: DC-SIGN (Homo sapiens, UniProt Q9NNX6)
T2 construct: expressed in transfected cells; host or cells: 293T cells
T2 sequence (Q9NNX6 1-404): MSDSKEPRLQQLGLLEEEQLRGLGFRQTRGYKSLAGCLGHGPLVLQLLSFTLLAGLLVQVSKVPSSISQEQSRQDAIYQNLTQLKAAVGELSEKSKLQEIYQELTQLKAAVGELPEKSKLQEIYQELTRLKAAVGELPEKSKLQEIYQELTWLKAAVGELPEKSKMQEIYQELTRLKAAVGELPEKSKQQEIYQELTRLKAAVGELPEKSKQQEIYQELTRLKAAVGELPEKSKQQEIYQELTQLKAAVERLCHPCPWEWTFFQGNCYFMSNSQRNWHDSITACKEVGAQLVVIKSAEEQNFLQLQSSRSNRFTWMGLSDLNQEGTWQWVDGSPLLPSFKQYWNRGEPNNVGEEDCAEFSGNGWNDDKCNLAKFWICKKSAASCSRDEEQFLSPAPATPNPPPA

T3: MMR.Fc (Homo sapiens, UniProt P22897)
T3 construct: The extracellular domains of lectin receptors, TREMs and TLTs were cloned by the reverse-transcriptase polymerase chain reaction (RT-PCR); made in house; host or cells: 293-F (FreeStyle 293) cells
T3 sequence (P22897 19-1389 limits assumed): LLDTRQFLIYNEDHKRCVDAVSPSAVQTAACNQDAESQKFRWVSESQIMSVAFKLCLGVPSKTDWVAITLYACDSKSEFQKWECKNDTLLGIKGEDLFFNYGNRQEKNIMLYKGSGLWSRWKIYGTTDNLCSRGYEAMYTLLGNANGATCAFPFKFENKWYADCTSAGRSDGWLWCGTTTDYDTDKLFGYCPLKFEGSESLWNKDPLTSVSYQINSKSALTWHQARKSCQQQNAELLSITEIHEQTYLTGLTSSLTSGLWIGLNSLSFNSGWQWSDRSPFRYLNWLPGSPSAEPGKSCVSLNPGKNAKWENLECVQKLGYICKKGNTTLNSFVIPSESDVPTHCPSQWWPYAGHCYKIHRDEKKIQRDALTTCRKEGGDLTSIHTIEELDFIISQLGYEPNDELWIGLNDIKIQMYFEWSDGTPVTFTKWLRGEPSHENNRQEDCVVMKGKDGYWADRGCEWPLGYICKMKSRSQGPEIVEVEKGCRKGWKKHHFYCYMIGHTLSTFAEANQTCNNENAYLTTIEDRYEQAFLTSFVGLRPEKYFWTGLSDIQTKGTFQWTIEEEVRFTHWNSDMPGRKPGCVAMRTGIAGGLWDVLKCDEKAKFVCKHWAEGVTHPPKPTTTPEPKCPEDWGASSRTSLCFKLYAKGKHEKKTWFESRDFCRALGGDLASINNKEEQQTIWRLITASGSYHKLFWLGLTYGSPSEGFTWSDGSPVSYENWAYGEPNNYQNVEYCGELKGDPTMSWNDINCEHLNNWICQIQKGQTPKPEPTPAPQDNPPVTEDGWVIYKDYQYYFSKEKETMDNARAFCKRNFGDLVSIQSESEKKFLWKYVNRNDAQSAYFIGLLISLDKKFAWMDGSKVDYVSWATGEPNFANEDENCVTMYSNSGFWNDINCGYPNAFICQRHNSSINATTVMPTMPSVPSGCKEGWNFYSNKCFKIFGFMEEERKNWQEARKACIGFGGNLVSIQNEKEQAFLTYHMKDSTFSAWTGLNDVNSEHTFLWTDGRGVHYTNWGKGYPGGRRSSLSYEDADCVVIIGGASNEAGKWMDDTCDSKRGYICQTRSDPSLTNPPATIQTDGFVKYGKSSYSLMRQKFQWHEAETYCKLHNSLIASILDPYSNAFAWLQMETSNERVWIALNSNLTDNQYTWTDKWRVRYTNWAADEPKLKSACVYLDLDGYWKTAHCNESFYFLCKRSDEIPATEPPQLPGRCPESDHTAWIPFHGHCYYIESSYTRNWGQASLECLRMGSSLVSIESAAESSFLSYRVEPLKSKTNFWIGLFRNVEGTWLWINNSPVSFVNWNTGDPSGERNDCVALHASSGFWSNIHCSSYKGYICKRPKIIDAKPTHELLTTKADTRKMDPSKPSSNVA

B1: sDVLR1/CLEC5A: alternatively spliced form of human DVLR1/CLEC5A (aa 43-65 deleted), SEQ ID NO: 73 (protein)
chain: MNWHMIISGLIVVVLKVVGMTLFLLYFPQIFNKSNDGFTTTRSYGTVCPKDWEFYQARCFFLSTSESSWNESRDFCKGKGSTLAIVNTPEKLFLQDITDAEKYFIGLIYHREEKRWRWINNSVFNGNVTNQNQNFNCATIGLTKTFDAASCDISYRRICEKNAK
modifications: Human

Legend:
TLR4.Fc = target: T4, TLR4.Fc (Homo sapiens, UniProt O00206); assay: Sugar competition EIA, TLR4.Fc binding to GLPS-F3; conditions: sugar 1 mg/ml
T4 construct: The extracellular domains of several innate immunity receptors from immune cells were cloned by reverse-transcription polymerase chain reaction (RT-PCR); made in house; host or cells: 293-F (FreeStyle 293) cells
Procedure: (§1) The interaction between GLPS-F3 and receptor.Fc was then tested. Unbiotinylated GLPS-F3 was immobilized at 100 ng/well as described above, and 100 μL receptor.Fc fusion protein (1 μg/ml in 2 mM MgCl2/2 mM CaCl2/1% BSA/TBST) was added into each well and incubated for 1 hour at room temperature. After washing with TBST, wells were incubated with peroxidase-conjugated goat anti-human IgG Ab (1:5000 dilution, Jackson ImmunoResearch Laboratories) in blocking buffer at room temperature for 30 min. Wells were incubated with 100 μL TMB substrate for 15 min after TBST washing and read at 450 nm in a Fusion plate reader (Perkin Elmer). The results were normalized with respect to Fc.Dectin-1 binding (Dectin-1 is a known lectin receptor that binds to β-1,3-glucan which is the backbone found in GLPS-F3). FIG. 6B depicts in graphical form the affinity of each receptor for GLPS-F3 relative to Dectin-1. […] There was also weaker but positive GLPS-F3 binding ability (25-50% binding intensity compared to Fc.dectin-1) found in Fc.NKG2D, Fc.MINCLE, Fc.mKCR, DCAL1.Fc, DEC205.Fc, Endo180.Fc and NKp30(NCR3).Fc.
(§2) To understand the interaction of GLPS-F3 with specific innate immunity receptors, the polysaccharides mannan and β-glucan and the monosaccharides D-mannose (Man), D-glucose (Glc), N-acetyl-glucosamine (GlcNAc), D-galactose (Gal), N-acetyl-galactosamine (GalNAc), L-fucose (Fuc) and sialic acid, were used in a competition assay. […] The assays were carried out as in Example 9, with the addition of 1 mg/ml of each polysaccharide or monosaccharide.

DC-SIGN [1] = target: T1, DC-SIGN; assay: Sugar competition EIA, Fc.DC-SIGN binding to GLPS-F3; conditions: sugar 1 mg/ml
Procedure: as §1, §2

DC-SIGN [2] = target: T2, DC-SIGN; assay: Sugar competition, biotinylated DV binding to DC-SIGN-transfected 293T cells; format: cell-based; conditions: flow cytometry
Procedure: In FIG. 16b, complexes of DV (5×10^6 PFU) with receptor.Fc (5 μg) were immunoprecipitated and detected on westerns with mAb to DV envelope (E) protein. […] FIGS. 16d and 16e show sugar competition assays wherein both DC-SIGN (CLEC4L) and DVLR1/CLEC5A increase DV binding to human 293T cells (FIG. 16d), while addition of sugars inhibits biotinylated DV binding to DC-SIGN- (left panel) or DLVR1/CLEC5A- (right panel) transfected 293T cells in a dose-dependent manner as determined by flow cytometry (FIG. 16e). According to FIG. 16e, MFI represents mean fluorescence intensity. Units (U) for monosaccharide (mannose and fucose) and polysaccharide (mannan) are mM and mg/ml, respectively. […] Data are expressed as the mean±s.d. of three independent experiments. Two-tailed, Student's t-tests were performed.
There are two conserved N-linked glycosylation sites at Asn-67 and Asn-153 of E protein (Pokidysheva, E. et al., Cell 124:485-93 (2006)), and the attached glycans (with terminal fucose and mannose) have been implicated in cellular attachment and viral entry (Modis, Y. et al., J. Virol. 79:1223-1231 (2005)). To investigate the participation of glycans in the association of DVLR1/CLEC5A with DV, virions were incubated with fucose, mannose, or mannan; where the last two sugars are the ligands for DC-SIGN (Mitchell et al., J. Biol. Chem. 276: 28939-28945 ([…])).

Langerin = target: T5, Langerin (Homo sapiens, UniProt Q9UJ71); assay: Sugar competition EIA, Fc.Langerin binding to GLPS-F3; conditions: sugar 1 mg/ml
T5 construct: The extracellular domains of lectin receptors, TREMs and TLTs were cloned by the reverse-transcriptase polymerase chain reaction (RT-PCR); made in house; host or cells: 293-F (FreeStyle 293) cells
Procedure: as §1, §2

MMR.Fc = target: T3, MMR.Fc; assay: Sugar competition EIA, MMR.Fc binding to GLPS-F3; conditions: sugar 1 mg/ml
Procedure: as §1, §2

Dengue virus = assay: ELISA of receptor.Fc interaction with Dengue virus; format: binding; conditions: receptor.Fc 1 μg; DV 5×10^6
Procedure: One μg of each receptor.Fc fusion protein was coated onto microtiter plates overnight at 4° C. DV (5×10^6 particles) of strain 16681 (a DEN2 strain) in binding buffer (1% BSA, 2 mM CaCl2, 2 mM MgCl2, 50 mM Tris-HCl pH 7.5, 150 mM NaCl) was then added to the plates and the plates were incubated for 2 hours. After washing non-bound virus, a biotinylated anti-DEN2 envelope protein antibody (Wu et al., J Virol, 2002. 76(8): p. 3596-604) was applied to bind to the virus for 1 hour. Diluted horseradish peroxidase-conjugated streptavidin was then added to the plates, followed by a 1 hour incubation. TMB substrate was then added and the plates were read using an ELISA reader at OD450 nm.
The microtiter plate assay was repeated in the presence of EDTA (10 mM) to chelate Ca^++ cations.
The microtiter plate assay was also repeated for DVLR1/CLEC5A.Fc fusion protein with DV particles (5×10^6) that had been 1) preincubated with 500 U of the glycosidase PNGaseF (New England Biolabs, Inc.) overnight at 37° C.; or 2) treated with dithiothreitol (DTTI) (0.1M); or 3) incubated at 95° C. for 5 minutes; or 4) UV irradiated for 5 minutes. The results are shown in FIG. 8D (asterisks indicate where the binding affinity of DVLR1/CLEC5A.Fc fusion protein is altered by modification of the virus relative to non-treated virus; ** p<0.01, *** p<0.001, Student's t test). […]

JEV = assay: ELISA of DVLR1/CLEC5A.Fc interaction with JEV; format: binding, Japanese encephamyelitis virus; conditions: 1 μg; JEV 5×10^6 PFU
Procedure: Like with DV, JEV follows a similar virus infection response pattern, which is believed to be the same or similar in all flaviviruses. […] (1 μg), with JEV and DV (5×10^6 PFU), respectively, were determined by ELISA. DV interacts with human DVLR1/CLEC5A (187 amino acid in length) SEQ ID NO: 72, but not the alternatively spliced form sDVLR1/CLEC5A (aa 43-65 is deleted). SEQ ID NO: 73. […] DAP12 in DV-infected macrophages were precipitated by anti-DAP12 mAb, blotted to nitrocellulose paper after fractionation on SDS-PAGE, followed by incubation with antibodies against phosphotyrosine and DAP12, respectively. JEV-induced DAP12 phosphorylation (m.o.i.=5) is inhibited by pLL3.7/DVLR1/CLEC5A. […] JEV-induced TNF-α secretion is inhibited by […] mAb (right). Data are expressed as the mean±s.d. of three independent experiments.

T5 sequence (Q9UJ71 65-328 limits assumed): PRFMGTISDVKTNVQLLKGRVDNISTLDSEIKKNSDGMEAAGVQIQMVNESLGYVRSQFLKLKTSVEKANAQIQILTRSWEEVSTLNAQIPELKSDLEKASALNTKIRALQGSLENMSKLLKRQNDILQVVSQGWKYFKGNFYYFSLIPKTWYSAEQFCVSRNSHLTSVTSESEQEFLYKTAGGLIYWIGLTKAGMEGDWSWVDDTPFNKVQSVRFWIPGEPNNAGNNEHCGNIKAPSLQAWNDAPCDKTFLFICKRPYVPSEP
T4 sequence (O00206 24-631 limits assumed): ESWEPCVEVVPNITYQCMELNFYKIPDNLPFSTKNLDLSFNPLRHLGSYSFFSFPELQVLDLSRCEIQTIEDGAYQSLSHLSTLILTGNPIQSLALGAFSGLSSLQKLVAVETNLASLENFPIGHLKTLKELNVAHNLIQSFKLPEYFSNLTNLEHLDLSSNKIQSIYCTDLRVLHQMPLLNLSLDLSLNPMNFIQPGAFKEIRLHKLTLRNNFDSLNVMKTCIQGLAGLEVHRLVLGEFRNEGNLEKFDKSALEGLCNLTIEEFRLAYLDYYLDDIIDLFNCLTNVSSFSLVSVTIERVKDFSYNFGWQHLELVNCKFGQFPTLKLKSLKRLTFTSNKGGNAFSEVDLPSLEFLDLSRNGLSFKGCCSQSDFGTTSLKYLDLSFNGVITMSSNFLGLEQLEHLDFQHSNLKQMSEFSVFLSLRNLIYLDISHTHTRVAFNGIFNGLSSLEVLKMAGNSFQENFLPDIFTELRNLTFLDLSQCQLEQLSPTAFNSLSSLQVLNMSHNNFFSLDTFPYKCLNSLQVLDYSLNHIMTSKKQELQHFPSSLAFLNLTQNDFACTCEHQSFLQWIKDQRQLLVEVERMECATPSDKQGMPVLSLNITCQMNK

Molecule	Percentage of binding of TLR4.Fc to GLPS-F3 relative to binding in absence of sugar competitor (TLR4.Fc)	inhibition of binding of Fc.DC-SIGN to GLPS-F3 (DC-SIGN [1])	inhibition of the DC-SIGN-DV interaction (DC-SIGN [2])	inhibition of interaction between Fc.Langerin and GLPS-F3 (Langerin)	inhibition of interaction between GLPS-F3 and MMR.Fc (MMR.Fc)	interaction of receptor.Fc with Dengue virus (ELISA) (Dengue virus)	interaction with JEV (ELISA) (JEV)
O=C[C@@H](O)[C@@H](O)[C@H](O)[C@H](O)CO [Man, D-mannose]	89 ± 2.6%	72%	dose-dependent inhibition	26%	87%	–	–
B1	–	–	–	–	–	not	only interacts
